Measurements as given in paper PMC6272905, “In Vitro and In Vivo Characterization of Selected Fluorine-18 Labeled Radioligands for PET Imaging of the Dopamine D3 Receptor” (Molecules, 2016).
Like-named read-outs stand apart in the source and are kept apart here. Blank lines part the entries; values can stand above or below the compound they belong to.

Key:
[1] = system: dopamine D3 receptor; assay: Dynamic small-animal PET recordings; type: in vivo; details: rat
Protocol: Small-animal PET imaging studies were conducted with male Sprague Dawleys rats (250–300 g) on a Inveon microPET scanner (Siemens Healthcare, Erlangen, Germany) under isoflurane (3%) anesthesia. After intravenous injection of [^18F]2b (10–15 MBq), dynamic emission recordings consisting of 13 frames of duration increasing from 30 s to 10 min were acquired to a total of 60 min. For displacement studies BP897 (1 mg/kg) was administered 30 min prior to radioligand injection. Dynamic emission images were corrected for attenuation and decay, and reconstructed by the iterative maximum a posteriori estimation, using software installed in the Inveon PET for dead time and random correction. The dynamic PET scan was then evaluated using the software Amide. The regions of interest were evaluated voxel based and the mean activity in %ID/g of each frame calculated.

[2] = parameters: method as in PMID 24339325, PMID 26707848; details: over 120 min, previously reported; cited from earlier work
[3] = biological target: T1, D3 receptor (Rattus norvegicus, UniProt P19020); assay: In vitro autoradiography of coronal rat brain sections; type: binding; details: displacement with BP897
T1 construct: In vitro autoradiography of coronal rat brain sections after incubation with the respective radioligand; from tissue; host or cells: coronal brain cryosections (20 µm) of male Sprague Dawley rats
T1 sequence (P19020 whole entry): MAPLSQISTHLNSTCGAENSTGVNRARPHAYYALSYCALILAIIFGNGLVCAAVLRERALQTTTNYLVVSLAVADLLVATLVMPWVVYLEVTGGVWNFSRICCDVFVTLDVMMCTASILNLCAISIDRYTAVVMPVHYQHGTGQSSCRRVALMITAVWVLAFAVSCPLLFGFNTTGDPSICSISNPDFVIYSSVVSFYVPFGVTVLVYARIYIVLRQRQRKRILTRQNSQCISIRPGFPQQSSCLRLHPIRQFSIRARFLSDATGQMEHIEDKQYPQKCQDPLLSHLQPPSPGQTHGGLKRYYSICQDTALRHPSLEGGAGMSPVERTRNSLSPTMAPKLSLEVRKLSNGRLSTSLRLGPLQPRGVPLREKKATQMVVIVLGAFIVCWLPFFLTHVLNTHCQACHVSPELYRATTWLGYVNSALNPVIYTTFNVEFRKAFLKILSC
Protocol: Male Sprague Dawley rats (200–250 g) were sacrificed by decapitation under deep isoflurane anesthesia and brains were removed and frozen in cooled hexane at −70 °C. Coronal brain sections (20 µm) were cut on a cryostat microtome (HM550, Microm-Thermo Fisher Scientific, Walldorf, Germany) and thaw-mounted on covered glass slides (Histobond®, Marienfeld, Lauda Königshofen, Germany). The thaw mounted sections were stored at −20 °C up to 14 days.
The cryostat sections were pre-incubated for 15 min in incubation buffer (50 mM Tris-HCl, 40 mM NaCl, pH 7.4) at room temperature. The sections were then placed in incubation buffer containing 5 MBq of the respective tracer. For displacement studies BP897 (50 nM or 1 µM) was added. The sections were incubated at room temperature for 45 min and afterwards washed in ice cold incubation buffer for 3 × 5 min. Subsequently, they were dipped in water and after drying placed on a phosphor imaging screen (Fujitsu, Berlin, Germany) over night. The screens were analyzed with a DUERR Medical HD-CR 35 Bio (Raytest, Straubenhardt, Germany) and evaluated using the software AIDA image analyzer (Raytest). For anatomical identification of brain regions, the sections were compared with figures in the rat brain atlas.

[4] = parameters: method as in PMID 24339325, PMID 26707848; details: experimental, pH 7.4, n = 6, previously reported; cited from earlier work
[5] = biological target: D3 receptor; details: cited from earlier work
[6] = Free fraction in rat plasma; type: in vitro ADME; details: for bound to proteins in plasma: of the injected dose; for free radioligand in rat plasma: Figure 3b
Protocol: (§1) The free fraction in vitro was determined by adding the respective radioligand (100 kBq) to plasma or CSF (200 µL) and mixed vigorously. Aliquots of 20–50 µL were transferred to size exclusion chromatography columns (MicroSpin G-50; GE Healthcare GmbH, Solingen, Germany, centrifuged for two min at 2000 rpm, and the radioactivity in the filtrate and in the resin were measured in the gamma-counter. Three independent experiments were performed in triplicates.
For the ex vivo determination of the radioligands binding to proteins the respective tracer (15 MBq) was administered intravenous to male Sprague Dawley rats (200–250 g) under isoflurane anesthesia. Blood samples were drawn intravenous after 5, 15 and 30 min and centrifuged for 5 min at 2000 rpm in heparin-coated vials. An aliquot of 50 µL was taken from the supernatant and added to an equal volume of water (10% TFA). The protein precipitate was centrifuged off for 5 min at 25,000 rpm and analyzed together with a further 50 µL aliquot of the supernatant in the gamma-counter. Two independent experiments were performed.

[7] = biological target: T2, P-gp (Homo sapiens, UniProt P08183); assay: P-gp inhibition assay (cellular uptake) in EA.hy926 cells; type: cell-based; details: with vs without cyclosporin-A
T2 construct: endogenous in cells; host or cells: Caco-2
T2 sequence (P08183 whole entry): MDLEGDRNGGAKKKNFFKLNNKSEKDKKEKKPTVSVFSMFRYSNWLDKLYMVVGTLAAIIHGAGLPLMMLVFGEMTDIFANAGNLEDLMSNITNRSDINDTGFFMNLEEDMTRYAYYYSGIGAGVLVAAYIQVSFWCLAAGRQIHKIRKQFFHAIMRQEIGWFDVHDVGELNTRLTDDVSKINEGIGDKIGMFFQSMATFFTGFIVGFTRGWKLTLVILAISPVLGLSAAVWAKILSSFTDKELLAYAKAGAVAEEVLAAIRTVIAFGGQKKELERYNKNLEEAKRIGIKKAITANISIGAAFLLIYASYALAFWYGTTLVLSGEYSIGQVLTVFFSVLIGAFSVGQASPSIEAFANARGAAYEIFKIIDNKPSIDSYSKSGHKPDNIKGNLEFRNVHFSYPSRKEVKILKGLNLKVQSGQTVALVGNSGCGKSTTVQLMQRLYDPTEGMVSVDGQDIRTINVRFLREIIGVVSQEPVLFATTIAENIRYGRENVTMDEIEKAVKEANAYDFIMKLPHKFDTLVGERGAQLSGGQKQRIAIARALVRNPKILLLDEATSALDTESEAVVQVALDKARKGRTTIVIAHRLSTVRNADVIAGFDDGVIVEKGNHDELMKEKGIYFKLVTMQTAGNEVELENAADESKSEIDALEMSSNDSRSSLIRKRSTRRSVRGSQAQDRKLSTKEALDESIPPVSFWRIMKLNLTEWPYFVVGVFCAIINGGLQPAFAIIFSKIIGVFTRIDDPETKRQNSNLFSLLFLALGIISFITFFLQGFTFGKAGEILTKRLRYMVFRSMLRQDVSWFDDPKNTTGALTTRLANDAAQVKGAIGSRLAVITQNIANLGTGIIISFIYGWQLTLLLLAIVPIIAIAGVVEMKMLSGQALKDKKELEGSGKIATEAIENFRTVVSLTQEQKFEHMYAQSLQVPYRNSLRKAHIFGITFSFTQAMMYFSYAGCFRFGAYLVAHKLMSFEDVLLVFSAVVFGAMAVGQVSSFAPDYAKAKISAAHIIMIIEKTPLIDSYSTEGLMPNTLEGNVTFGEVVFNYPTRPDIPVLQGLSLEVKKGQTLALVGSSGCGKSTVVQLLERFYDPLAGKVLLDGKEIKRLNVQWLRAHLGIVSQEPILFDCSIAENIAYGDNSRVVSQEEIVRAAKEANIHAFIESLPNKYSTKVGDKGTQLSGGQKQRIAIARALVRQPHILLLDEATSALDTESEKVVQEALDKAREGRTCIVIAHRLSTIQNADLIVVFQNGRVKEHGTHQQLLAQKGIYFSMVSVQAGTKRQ
Protocol: (§2) EA.hy926 cells were seeded in culture medium at confluency the day prior to experiment or in case of the Caco-2 cells two days prior to experiment in 24-multiwell plates (Greiner Bio-One International GmbH, Kremsmünster, Austria). On the day of the experiment the culture medium was removed and the cells were washed once with PBS (500 µL). Culture medium supplemented with cyclosporine-A (5 µM for EA.hy926 and 10 µM for Caco-2) was added and the cells were incubated at 37 °C for 30 min. Afterwards 1 MBq of [^18F]2b was added to each well and incubated for further 30, 60 and 90 min. After incubation cells were washed with ice cold PBS (500 µL) and lysated with 0.1 M NaOH. The medium and lysates were analysed in the gamma-counter. To identify cyclosporine-A induced accumulation the experiment was also performed using culture medium lacking cyclosporine-A. As positive control the experiment was performed with ^99mTc-MIBI (100 kBq/well), a known P-gp substrate. To determine the lowermost concentration with which a maximum effect was obtained, cyclosporine-A was applied in a range of 0–50 µM and observed in a time frame of 30–120 min for both cell lines.

[8] = biological target: T2, P-gp; assay: P-gp inhibition assay (cellular uptake) in Caco-2 cells; type: cell-based; details: with vs without cyclosporin-A
Protocol: as §2

[9] = biological target: T2, P-gp; assay: Bi-directional transport assay in Caco-2 cells; type: cell-based
Protocol: The procedure of initially adding equal concentrations to both compartments was adapted from the literature. Caco-2 cells were seeded near confluency in thin-cert inserts (translucent, Ø 0.4 µm, 24 well PET membrane, Greiner) and placed in multiwell plates (CELLSTAR 24 Multiwell plates, Greiner). The culture medium basolateral (multiwell) and apical (insert) was renewed every 2–3 days. Approximately 12 days after seeding the Caco-2 cells reached their highest trans-epithelial resistance, which was monitored every four days and on day of the experiment. An immunocytochemistry was also performed with an additional insert (translucent) to confirm stable formation of tight-junctions and cell monolayer. Culture medium was then removed and the cells were washed with PBS. Culture medium supplemented with cyclosporin (10 µM) was added to both compartments and the cells were incubated at 37 °C for 30 min. Afterwards 1 MBq [^18F]2b was added to each compartment. An aliquot was taken from each compartment after 0, 30, 60 and 90 min and analyzed in the gamma-counter. To identify cyclosporine-A induced accumulation the experiment was also performed using culture medium lacking cyclosporine-A. As positive control the experiment was performed with ^99mTc-MIBI (100 kBq/ compartment).

[10] = Binding to proteins in human plasma in vitro; type: in vitro ADME; details: human vs rat plasma
Protocol: as §1

[11] = Determination of log D7.4 (experimental); type: physicochemical; details: pH 7.4, n = 6
Protocol: Human serum was purchased (Biochrom, Biochrom, UK). Human plasma and cerebrospinal fluid was a kind gift from the laboratory of Prof. P. Lewczuk of the clinical neurochemistry in Erlangen. Rat plasma was collected from male Sprague Dawley blood samples. The blood samples were collected intravenous and centrifuged at 2000 rpm for 15 min in heparin coated vials. The supernatant was stored in aliquots at −20 °C. Radioactivity was measured with radio HPLC or in a gamma-counter (Wallac Wizard, PerkinElmer, Waltham, MA, USA). The determination of the distribution coefficient at pH 7.4 (log D7.4) has been previously published.

[12] = In vivo stability in blood of living rats (radiometabolites); parameters: species or system rat
Protocol: For the determination of radioligand stability in vivo and detection of radiometabolites the respective radiotracer (15 MBq) was administered intravenous to male Sprague Dawley rats (200–250 g) under isoflurane anesthesia. Blood samples were drawn intravenous after 5, 15 and 30 min and centrifuged for 5 min at 2000 rpm in heparin-coated vials. An aliquot of 50 µL was taken from the supernatant and added to an equal volume of water (10% TFA). The protein precipitate was centrifuged off for 5 min at 25,000 rpm and an aliquot of the supernatant was fractioned with HPLC (Chromolith RP-18e, 100 mm × 4.6 mm, 4 mL/min, solvent A: water (0.1% TFA), solvent B: acetonitrile (0.1% TFA), gradient A/B: 90:10 to 0:100 in 15 min, λ = 214 nm). The fractions were then analyzed in the gamma-counter. To identify the fractions containing the intact radioligand, the retention time and fractioning of the respective tracer was previously assessed. Two independent experiments were performed.

[13] = In vitro stability in human serum; type: in vitro ADME; details: 37 °C, after 120 min
Protocol: For the in vitro stability, an aliquot of the respective radioligand (1–5 MBq) was added to human serum (200 μL) and incubated at 37 °C. Aliquots (20 μL) were taken after 15, 30 and 120 min and analyzed by radio-HPLC (Method 1).

[14] = Caco-2, absence of cyclosporin-A, up to 90 min

SMILES: O=C(/N=N/c1ccc([18F])cc1)NCCC(O)CN1CCN(c2cccc(Cl)c2Cl)CC1 (centres unmarked) [[^18F]2a]
brain uptake smaller than for [^18F]2b, factor [1]: 1.5
uptake in the pituitary gland ([1]; 25 min p.i.): 0.6 %ID/g
decomposition in human serum [2]: no decomposition was observed
binding pattern in rat brain sections [3]: homogenous non-specific binding throughout the whole rat brain sections
Log D7.4 [4]: 2.56 ± 0.01
Ki [5]: 3.6 nM
bound to proteins in plasma [6]: 82%
free radioligand in rat plasma [6]: 18%

SMILES: [99Tc].[C-]#[N+]CC(C)(C)OC.[C-]#[N+]CC(C)(C)OC.[C-]#[N+]CC(C)(C)OC.[C-]#[N+]CC(C)(C)OC.[C-]#[N+]CC(C)(C)OC.[C-]#[N+]CC(C)(C)OC [^99mTc-MIBI, ^99mTc-methylisobutylnitrile, reference compound]
influence of cyclosporin-A on cellular uptake [7]: accumulated
influence of cyclosporin-A on cellular uptake [8]: accumulated
concentration in the apical compartment, % of the initial concentration [9, 14]: 120%
concentration in the basolateral compartment, % of the initial concentration [9, 14]: 70%
concentration in the basolateral compartment ([9]; Caco-2, presence of cyclosporin-A): remained nearly constant
concentration in the apical compartment, % of the initial concentration ([9]; Caco-2, presence of cyclosporin-A (^99mTc-MIBI after 60 and 90 min; [^18F]2b after 30 min)): 90%

uptake in the pituitary gland ([1]; 30 min p.i.): 0.45 %ID/g
maximum uptake in the cerebral matter ([1]; after 50 seconds): 0.25 %ID/g
uptake in the cerebral matter after wash-out ([1]; over the 60 min of recording): 0.17 %ID/g
binding to human plasma higher than in rat plasma [10]: 20%–30%
logD [11]: 2.5 ± 0.04
intact tracer in rat plasma ([12]; 15 min post intravenous injection): 57%
intact tracer in rat plasma ([12]; nearly constant over the total sampling time): ~ 60%
decomposition in human serum [13]: ≤ 2%
bound to proteins in plasma [6]: 58%
free radioligand in rat plasma [6]: 42%
SMILES: O=C(NCCC(O)CN1CCN(c2cccc(Cl)c2Cl)CC1)c1ccc(F)nc1 (centres unmarked) [[^18F]1, N-(4-(4-(2,3-Dichlorophenyl)piperazine-1-yl)-3-hydroxybutyl)-6-fluoronicotinamide]
binding pattern in rat brain sections [3]: pronounced non-specific binding in the corpus callosum and anterior commissure
Ki [5]: 1.9 nM
